Assay results as given in US5399566A, “Pyridine derivatives having angiotensin II antagonism” (Meiji Seika Kabushiki Kaisha, priority 1990, dated 1995).

Columns and labels:
[1] = target: T1, contraction response to angiotensin II at the isolated thoracic aorta of rabbit (Oryctolagus cuniculus, UniProt P34976); test: In vitro angiotensin II antagonism, isolated rabbit thoracic aorta (Schild pA2); assay type: cell-based; details: Schild plot
T1 construct: A strip of thoracic aorta of a male rabbit (2.5-3.0 kg) was prepared by the usual method; from tissue; host or cells: rabbit thoracic aorta strip
T1 sequence (P34976 1-359): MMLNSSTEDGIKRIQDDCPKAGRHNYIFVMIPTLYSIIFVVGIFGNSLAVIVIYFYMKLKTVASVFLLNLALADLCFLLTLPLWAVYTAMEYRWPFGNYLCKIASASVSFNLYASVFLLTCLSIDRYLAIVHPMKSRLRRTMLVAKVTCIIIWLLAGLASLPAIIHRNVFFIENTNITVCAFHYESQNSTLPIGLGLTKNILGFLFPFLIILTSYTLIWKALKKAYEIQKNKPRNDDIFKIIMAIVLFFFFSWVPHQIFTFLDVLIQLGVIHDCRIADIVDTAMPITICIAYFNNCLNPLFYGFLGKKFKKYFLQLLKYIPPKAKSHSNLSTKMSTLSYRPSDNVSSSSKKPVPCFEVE
Source text: (§1) The angiotensin II antagonistic activities in vitro were compared on the basis of the intensities (pA2 value) of antagonizing the contraction response to angiotensin II at the isolated thoracic aorta of rabbit. The in vivo activities were examined by comparing the inhibitory effects on the hypertensive action by an exogenous angiotensin II in a non-anesthetized rat and the hypotensive effects of a renal hypertensive rat or a spontaneously hypertensive rat.
A strip of thoracic aorta of a male rabbit (2.5-3.0 kg) was prepared by the usual method and suspended in an organ bath containing well oxygenated Krebs-Henseleit solution at 37° C. The pA2 value was calculated according to the method described by H. O. Schild (British Journal of Pharmacology and Chemotherapeutics, 2, 189-206, 1947). A strip treated with 3-5 doses of a subject compound in an amount of 10^-6 M-10^-10 M and a strip treated with no drug were employed for obtaining a dose-response curve by angiotensin II. Log (dose ratio--1) was calculated from the shift of the dose-response curve of the subject compound, and pA2 value was obtained from the Schild plottings.

[2] = Toxicity test, oral, mice; details: mouse, in vivo, ddY male mice 5 weeks old
Protocol: Several compounds of the present invention represented by the general formula (I) were administered orally by compulsion to ddY male mice of 5 weeks old (average weight, ca. 20 g).

[3] = tested on: hypertensive action by angiotensin II; test: Inhibition on the hypertensive action by an exogenous angiotensin II in conscious rats; assay type: in vivo, Spraque-Dawley (SD) male rats; details: oral; for ED50: Rattus norvegicus, within 6 hours after administration, read-out: ED50 (dose required for inhibiting the hypertensive action by angiotensin II to the extent of 50%); for inhibitory effect on the hypertensive action by angiotensin II: dose of 1 mg/kg or less, angiotensin II 0.1 μg/kg i.v.
Source text: as §1
Anesthetized Spraque-Dawley (SD) male rats were cannulated into a femoral artery and a femoral vein and used for the experiment at the time when it has elapsed at least 24 hours after the operation. The hypertensive action caused by angiotensin II (0.1 μg/kg) which has been administered through the vein catheter was measured under conscious and unrestrained condition before and after administration of the compound. The artery catheter was connected to a pressure transducer to measure a mean blood pressure, and the subject compounds were orally administered in the form of a homogeneous suspension in a 0.5% aqueous carboxymethyl cellulose solution.
The intensities of the inhibitory effects within 6 hours after administration of the compound were examined on the basis of the dose of the compound required for inhibiting the hypertensive action by angiotensin II to the extent of 50% (ED50 values).

[4] = tested on: Renal hypertensive rats; test: Hypotensive effect in renal hypertensive rats (RHR); assay type: in vivo, Spraque-Dawley (SD) male rats; details: oral, 3 mg/kg
Protocol: Renal hypertensive rats, a model of high-renin hypertension, were prepared according to the method of J. L. Cangiano et al. (Journal of Pharmacology and Experimental Therapeutics, 208, 310-313, 1979). That is, the experiment was conducted with Spraque-Dawley (SD) male rats (250-300 g), which were ligated the left renal artery with a thread under the anesthetic condition, so that the systolic blood pressure was increased more than 150 mmHg on 1 week after the operation. The subject compounds were orally administered in the form of a homogeneous suspension in a 0.5% aqueous carboxymethylcellulose solution, and a mean blood pressure was measured in the same manner as in the paragraph 1-2. Heart rate was counted with a cardiotachmeter triggered by the arterial pulse.

[5] = tested on: spontaneously hypertensive rats; test: Hypotensive effect in spontaneously hypertensive rats (SHR); assay type: in vivo, male spontaneously hypertensive rats; details: oral, 10 mg/kg
Protocol: The subject compounds were administered orally in the same manner as in the paragraph 1-3 to male spontaneously hypertensive rats (28 weeks old, Charles-River Co.), which were measured mean blood pressure and heart rate.

[6] = tested on: ddY male mice; test: Antianxiety effect, light and dark box; assay type: in vivo; details: oral, 0.1 μg/kg, 1 hour
Protocol: (§2) The subject compounds were examined on their antianxiety effect with the light and dark box according to the method described by B. Costall et al. (Pharmacology Biochemistry and Behavior, 32, 777-785, 1989) and with the elevated plus maze by S. Pell et al. (Journal of Neuroscience Methods, 14, 149-167, 1985).
The subject compounds were administered orally to ddY male mice (4-5 weeks old) at a dose of 0.1-1000 μg/kg. After 1 hour they were placed in the light chamber of the light and dark box, and after 10 seconds the door at the boundary between the light chamber and the dark chamber was opened. The behavior of the animals in the light and dark box under a sound-proof condition for four minutes was observed and examined by comparing the measurements of latency to the dark chamber, shuttling between the light and dark chambers and duration in the light chamber with those in the group to which only a solvent was administered. The subject compounds were orally administered in the form of a homogeneous suspension or solution in a 0.5% aqueous carboxymethyl cellulose solution.

[7] = tested on: electric shock induced amnesia mice; test: Cognitive enhancing effect, step through passive avoidance in electric shock induced amnesia mice; assay type: in vivo, ddY strain male mice; details: oral, 10 μg/kg
Protocol: In order to examine the influence of the compounds on the learning and memory facilitating, an amnesia model with use of electric shock in a step through type passive avoidance box (PA-M5 model; OBARA IKA-SANGYOSHA) in accordance with the method described by C. Giurgea et al. (Progressive of Neuropsychopharmacology, 1, 235-247 (1977)) was used.
The subject compounds were orally administered at a dose of 1 ng/kg -1 mg/kg in the form of a homogeneous suspension in a 0.5% aqueous carboxymethylcellulose solution to ddY strain male mice (4-5 weeks) 1 hour before acquisition-trial and 1 hour before retrievaltrial. The animal was first placed in the light chamber, and the door at the boundary between the light and dark chamber was opened after 30 seconds. At the same time as the animal stepped into the dark chamber, electric footshock (40 V) was delivered to the floor of the dark chamber so that the animal acquired avoidance response (acquisition-trial). […] That is, the animal was placed again in the light chamber, the door was opened after 30 seconds, and the latency of the animal into the dark -chamber was measured for up to 600 seconds, so that the time was compared with that of the solvent administered group in which amnesia had been caused by electric shock.

[8] = tested on: Fisher 344 male rats; test: Antianxiety effect, elevated plus maze; assay type: in vivo; details: oral, 1 μg/kg, 1 hour
Protocol: as §2
To Fisher 344 male rats (5-6 weeks old), the subject compounds were orally administered at a dose of 1-100 μg/kg in the form of a homogeneous suspension or solution in a 0.5% aqueous carboxymethyl cellulose solution. Among the four arms of the elevated plus maze (a device in which four arms are intersected crosswise and connected together at a height of 50 cm from the floor), the two arms with side walls are referred to as closed arms and the two arms without side walls are referred to as open arms. […] As the indices of the behavior, the latency until stepped out from the arm first placed to the other arm and the durations in the respective arms were measured, and the other behaviors were recorded. Diazepam was used as a control agent, and the drug administered group and the solvent administered group (group to which a 0.5% aqueous carboxymethyl cellulose solution was administered)were compared for the behaviors.

[9] = tested on: SD female rats; details: rat, in vivo, po, 100 mg/kg

Structure (SMILES) | Kb [1] | LD50 [2] | ED50 [3] | inhibitory effect on the hypertensive action by angiotensin II [3] | depression of blood pressure [4] | hypotensive effect [4] | depression of blood pressure [5] | hypotensive effect [5] | duration in the light chamber [6] | latency to the dark chamber [6] | latency into the dark chamber (passive avoidance response) [7] | duration out of the closed arm [8] | transitions [8] | symptom of toxicity [9]
COc1c(OCc2ccc(-c3ccccc3-c3nnn[nH]3)cc2)cc(C)nc1C [Example 11, 3-methoxy-2,6-dimethyl-4-[2'-(tetrazol-5-yl)biphenyl-4-yl]methoxypyridine] | 6.31 nM | > 1000 mg/kg | 0.54 mg/kg | significant inhibitory effects | 20-26% | significant long-lasting hypotensive effect | approximately 20% | significant hypotensive effect | increased | increased | significant prolongation of the latency into the dark chamber | – | – | –
CCOC(=O)c1c(OCc2ccc(-c3ccccc3-c3nnn[nH]3)cc2)cc(C)nc1CC [Example 45, 3-ethoxycarbonyl-2-ethyl-6-methyl-4-[2'-(tetrazol-5-yl)-biphenyl-4-yl]methoxypyridine] | 6.76 nM | > 1000 mg/kg | 0.52 mg/kg | significant inhibitory effects | 20-26% | significant long-lasting hypotensive effect | approximately 20% | significant hypotensive effect | – | – | – | increasing tendency | significant increase | no symptom of toxicity was observed
